Assay results: PMC11404609, “Gut microbiota-mediated C-sulfonate metabolism impairs the bioavailability and anti-cholestatic efficacy of andrographolide” (Gut Microbes, 2024)

Legend:
[1] = Plasma pharmacokinetics of AP after oral administration in mice; format: in vivo; conditions: for Fr (%) relative oral bioavailability / AUC(0-inf) / AUC(0-t) / Cmax / Tmax / half-life: AP 100 mg/kg oral gavage; for AUC(0-inf) / AUC(0-t) / Cmax / Tmax / half-life: mouse, plasma, po, 100 mg/kg, mean ± SD
Procedure: Mice were orally administered APS reductase inhibitor bromocriptine mesylate (20 mg/kg, p.o.) or Na2SO4 (200 mg/kg, p.o.) or saline solution 1 week prior to AP treatment (a single dose of AP at 100 mg/kg, p.o.). Blood samples (50 μL) were collected at predetermined time points (0, 10, 20, 40, 60, 90, 120, 240, 360 min). In specific cases, mice were orally administrated with D. piger suspension (0.2 mL, 1 × 10^9 CFU/mL) or saline solution by oral gavage for 2 weeks before AP treatment (a single dose of AP at 100 mg/kg, p.o.).
The pharmacokinetic parameters of AP including peak time (Tmax), maximum concentration (Cmax), area under the curve from zero time to the last time point measured (AUC0-t), area under the curve from zero time to infinity (AUC0-∞), and elimination half-life (t1/2) were estimated using DAS 2.0 software (Shanghai, China). The relative oral bioavailability (Fr) of AP was calculated by the following equation: Fr(%)=AUC0−∞of ABX/Inhibitor/SO42−/D.piger/AUC0−∞of Control×100%
(§1) An ACQUITY^TM UPLC-MS/MS system equipped with an ACQUITY^TM UPLC BEH C18 Column (50 × 2.1 mm I.D., 1.7 μm, Waters, Milford, MA, USA) was utilized for the quantification of AP and APM as previously described.[47] Briefly, the detection samples (50 μL) were mixed with 50 μL of IS (50 ng/mL). AP and APM were extracted by 400 μL cold methanol. Supernatants were dried under nitrogen stream. Then, the residue was dissolved with 50% methanol in water, centrifuged for 30 min at 13,000 rpm, and 10 µL of the supernatant was subjected to UPLC-MS/MS analysis. The mobile phases consisted of eluent A (water) and eluent B (methanol) with a gradient elution as follows: 0–0.8 min, 10% B; 0.8–1.2 min, 10–90% B; 1.2–5.0 min, 90% B; 5.0–5.5 min, 90–10% B; 5.5–7.0 min, 10% B. The flow rate was 0.3 mL/min and the injection volume of all samples was 10 μL. The quantification of AP, APM and IS was performed by UPLC-MS/MS using an MRM method with the transitions of m/z 349.1→m/z 287.2 for AP, m/z 413.2→m/z 287.2 for APM, m/z 269→m/z 133 for IS.

[2] = Tissue distribution of AP and APM in mice; format: in vivo
Procedure: Control and ABX rats were orally administered a single dose of AP at 120 mg/kg. Control, ABX and germ-free C57BL/6J mice were orally administered a single dose of AP at 100 mg/kg. After 90 min of AP administration, all animals were euthanized, and blood and tissue samples were collected for subsequent analysis.
After 360 min of AP treatment, all mice were euthanized, and tissue samples were collected for subsequent analysis. […]
as §1
AP was administered intravenously and orally to detect the production of the C-sulfonate metabolite APM. In tissue distribution experiment, rats were given AP intravenously (24 mg/kg) or orally (120 mg/kg), while mice received AP intravenously (20 mg/kg) or orally (100 mg/kg). After a 90-minute interval, the animals were sacrificed, and their liver, kidneys, small intestine, and colon were collected for analysis. In pharmacokinetic studies, rats were administered 24 mg/kg of AP intravenously or 120 mg/kg of AP by oral gavage. Blood samples were collected at predetermined time intervals (0, 5, 10, 20, 30, 40, 60, 90, 120, 180, 240, 360, and 480 min), as described, to detect the content of AP and APM by UPLC-MS/MS.

[3] = mice, Control group (Table 3), n = 10
[4] = mice, Control group (Table 4), n = 12
[5] = mice, D. piger group (D. piger suspension by gavage 2 weeks before), n = 12
[6] = mice, Inhibitor group (bromocriptine mesylate 20 mg/kg p.o. 1 week before), n = 10
[7] = mice, SO4^2- group (Na2SO4 200 mg/kg p.o. 1 week before), n = 10

In the case of `C=C1CC[C@@H]2[C@](C)(CO)[C@H](O)CC[C@@]2(C)[C@@H]1C/C=C1/C(=O)OC[C@H]1O` [AP, Andrographolide], the “reduction in AP bioavailability” value ([1]; mice colonized with D. piger) is reported as 60.11%, the “Fr (%) relative oral bioavailability” value ([1]; mice, D. piger group vs Control (AUC0-∞ ratio)) is reported as 39.89% and the “Fr (%) relative oral bioavailability” value ([1]; mice, Inhibitor group vs Control (AUC0-∞ ratio)) is reported as 147.48%. For the same compound, the “Fr (%) relative oral bioavailability” value ([1]; mice, SO4^2- group vs Control (AUC0-∞ ratio)) was 29.42%, the “increase in AP bioavailability” value ([1]; mice, inhibition of APS reductase by bromocriptine mesylate) was 47.48% and the “reduction in AP bioavailability” value ([1]; mice, treatment of Na2SO4) was 70.58%. For the same compound, the AUC(0-inf) [1, 3] was 772 ng·h/mL, the AUC(0-t) [1, 3] was 646 ng·h/mL and the Cmax [1, 3] was 500 ± 330 ng/mL. For the same compound, the Tmax [1, 3] was 32 min, the half-life [1, 3] was 146 ± 67.4 min and the AUC(0-inf) [1, 4] was 1030 ng·h/mL. It also gave an AUC(0-t) [1, 4] of 909 ng·h/mL, a Cmax [1, 4] of 760 ± 440 ng/mL and a Tmax [1, 4] of 41.7 min. The half-life [1, 4] was 136 ± 65.2 min, the AUC(0-inf) [1, 5] was 411 ng·h/mL and the AUC(0-t) [1, 5] was 374 ng·h/mL. The Cmax [1, 5] was 360 ± 280 ng/mL, the Tmax [1, 5] was 35 min and the half-life [1, 5] was 77.2 ± 38.6 min. For the same compound, the AUC(0-inf) [1, 6] was 1140 ng·h/mL, the AUC(0-t) [1, 6] was 906 ng·h/mL and the Cmax [1, 6] was 970 ± 370 ng/mL. The Tmax [1, 6] was 27 min, the half-life [1, 6] was 146 ± 86.4 min and the AUC(0-inf) [1, 7] was 227 ng·h/mL. For the same compound, the AUC(0-t) [1, 7] was 199 ng·h/mL, the Cmax [1, 7] was 142 ± 30 ng/mL and the Tmax [1, 7] was 17 min. For the same compound, the half-life [1, 7] was 133 ± 104 min, the “concentration of AP in tissues” value ([2]; ABX-treated mice vs Control, AP 100 mg/kg oral) was “notably increased” and the “C-sulfonate metabolism of AP” value ([2]; germ-free mice, AP 100 mg/kg oral) was “suppressed”. For the same compound, the “AP concentration in tissues such as the liver” value ([2]; mice colonized with D. piger vs Control, AP 100 mg/kg p.o.) was “notable reduction”, the “concentration of AP in the intestine and liver” value ([2]; mice of pharmacological experiment, AP 200 mg/kg, following ABX treatment vs Control) was “significantly increased” and the “AP levels in mouse tissues” value ([2]; mice, AP 100 mg/kg p.o., Na2SO4 pre-treatment vs Control) was “decreased AP levels”. The “AP levels in mouse tissues” value ([2]; mice, AP 100 mg/kg p.o., bromocriptine mesylate pre-treatment vs Control) was “elevated AP levels” and the “AP exposure within the small intestine and liver” value ([2]; mice, AP 200 mg/kg p.o. with APS reductase inhibitor vs without) was “increase in AP exposure”.
